{"source": "patent US8431568B2", "about": "“Aromatic heterocyclic fused indolobenzadiazepine HCV NS5B inhibitors” (Bristol-Myers Squibb Company, priority 2008, dated 2013)", "key": {"[1]": {"tested_on": "HCV replicon cells", "assay": "HCV replicon FRET assay", "type": "cell-based", "details": "Hepatitis C virus", "from_the_text": "To perform the HCV FRET screening assay, 96-well cell culture plates were used. The FRET peptide (Anaspec, Inc.) (Taliani et al., Anal. Biochem. 1996, 240, 60-67) contains a fluorescence donor, EDANS, near one end of the peptide and an acceptor, DABCYL, near the other end. The fluorescence of the peptide is quenched by […] resonance energy transfer (RET) between the donor and the acceptor, but as the NS3 protease cleaves the peptide the products are released from RET quenching and the fluorescence of the donor becomes apparent. The assay reagent was made as follows: 5× cell Luciferase cell culture lysis reagent from Promega (#E153A) diluted to 1× with dH2O, NaCl added to 150 mM final, the FRET peptide diluted to 20 uM final from a 2 mM stock.\nTo prepare plates, HCV replicon cells, with or without a Renilla luciferase reporter gene, were trypsinized and placed into each well of a 96-well plate with titrated test compounds added in columns 3 through 12; columns 1 and 2 contained a control compound (HCV protease inhibitor), and the bottom row contained cells without compound. The plates were then placed in a CO2 incubator at 37° C.\nSubsequent to addition of the test compounds described above (FRET Assay Preparation), at various times the plate was removed and Alamar blue solution (Trek Diagnostics, #00-100) was added per well as a measure of cellular toxicity. After reading in a Cytoflour 4000 instrument (PE Biosystems), plates were rinsed with PBS and then used for FRET assay by the addition of 30 ul of the FRET peptide assay reagent described above (FRET Assay Preparation) per well. The plate was then placed into the Cytoflour 4000 instrument which had been set to 340 excite/490 emission, automatic mode for 20 cycles and the plate read in a kinetic mode. Typically, the signal to noise using an endpoint analysis after the reads was at least three-fold. Alternatively, after Alamar blue reading, plates were rinsed with PBS, 50 ul of DMEM (high glucose) without phenol red was added and plates were then used for luciferase assay using the Promega Dual-Glo Luciferase Assay System.\nCompound analysis was determined by quantification of the relative HCV replicon inhibition and the relative cytotoxicity values. To calculate cytoxicity values, the average Alamar Blue fluorescence signals from the control wells were set as 100% non-toxic. The individual signals in each of the compound test wells were then divided by the average control signal and multiplied by 100% to determine […]. To calculate the HCV replicon inhibition values, an average background value was obtained from the two wells containing the highest amount of HCV protease inhibitor at the end of the assay period. These numbers were similar to those obtained from naïve Huh-7 cells.\nThe background numbers were then subtracted from the average signal obtained from the control wells and this number was used as 100% activity. The individual signals in each of the compound test wells were then divided by the averaged control values after background subtraction and multiplied by 100% to determine percent activity. EC50 values for a protease inhibitor titration were calculated as the concentration which caused a 50% reduction in FRET or luciferase activity. The two numbers generated for the compound plate, percent cytoxicity and percent activity were used to determine compounds of interest for further analysis."}, "[2]": {"target": "T1, HCV NS5B RdRp genotype 1b (Hepatitis C virus genotype 1b, UniProt Q9WMX2)", "T1 construct": "The protein was expressed with an 18 amino acid C-terminal truncation to enhance the solubility; made in house; host or cells: E. coli BL21(DE3), pET21a vector", "T1 sequence (Q9WMX2 2420-2992)": "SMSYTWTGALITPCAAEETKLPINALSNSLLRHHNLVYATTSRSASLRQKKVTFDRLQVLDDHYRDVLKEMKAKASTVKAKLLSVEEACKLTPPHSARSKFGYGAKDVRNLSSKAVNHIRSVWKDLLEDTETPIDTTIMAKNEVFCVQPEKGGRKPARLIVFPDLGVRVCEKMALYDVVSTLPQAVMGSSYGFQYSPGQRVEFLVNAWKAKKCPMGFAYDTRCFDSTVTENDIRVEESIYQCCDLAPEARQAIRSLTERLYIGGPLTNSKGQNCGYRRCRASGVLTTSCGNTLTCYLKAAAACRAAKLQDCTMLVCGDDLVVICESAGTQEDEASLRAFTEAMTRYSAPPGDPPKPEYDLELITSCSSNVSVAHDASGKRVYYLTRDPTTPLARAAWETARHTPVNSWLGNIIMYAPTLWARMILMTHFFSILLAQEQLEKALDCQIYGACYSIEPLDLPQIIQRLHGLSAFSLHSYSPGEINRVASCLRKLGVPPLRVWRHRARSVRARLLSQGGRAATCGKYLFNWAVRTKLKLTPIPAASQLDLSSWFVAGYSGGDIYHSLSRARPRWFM", "assay": "Modified HCV NS5B RdRp enzyme assay (preincubation protocol)", "type": "biochemical", "experimental": "HCV NS5B RdRp Cloning, Expression, and Purification.\nThe cDNA encoding the NS5B protein of HCV, genotype 1b, was cloned into the pET21a expression vector. The protein was expressed with an 18 amino acid C-terminal truncation to enhance the solubility. The E. coli competent cell line BL21(DE3) was used for expression of the protein. Cultures were grown at 37° C. for ˜4 hours until the cultures reached an optical density of 2.0 at 600 nm. The cultures were cooled to 20° C. and induced with 1 mM IPTG. Fresh ampicillin was added to a final concentration of 50 μg/ml and the cells were grown overnight at 20° C.\nCell pellets (3 L) were lysed for purification to yield 15-24 mgs of purified NS5B. The lysis buffer consisted of 20 mM Tris-HCl, pH 7.4, 500 mM NaCl, 0.5% triton X-100, 1 mM DTT, 1 mM EDTA, 20% glycerol, 0.5 mg/ml lysozyme, 10 mM MgCl2, 15 ug/ml deoxyribonuclease I, and Complete TM protease inhibitor tablets (Roche). After addition of the lysis buffer, frozen cell pellets were resuspended using a tissue homogenizer. To reduce the viscosity of the sample, aliquots of the lysate were sonicated on ice using a microtip attached to a Branson sonicator. The sonicated lysate was centrifuged at 100,000×g for 1 hr at 4° C. and filtered through a 0.2 μm filter unit (Corning).\nThe protein was purified using three sequential chromatography steps: Heparin sepharose CL-6B, polyU sepharose 4B, and Hitrap SP sepharose (Pharmacia). The chromatography buffers were identical to the lysis buffer but contained no lysozyme, deoxyribonuclease I, MgCl2 or protease inhibitor and the NaCl concentration of the buffer was adjusted according to the requirements for charging the protein onto the column. Each column was eluted with a NaCl gradient which varied in length from 5-50 column volumes depending on the column type. After the final chromatography step, the resulting purity of the enzyme is >90% based on SDS-PAGE analysis. The enzyme was aliquoted and stored at −80° C.\nStandard HCV NS5B RdRp Enzyme Assay.\nHCV RdRp genotype 1b assays were run in a final volume of 60 μl in 96 well plates (Costar 3912). The assay buffer is composed of 20 mM Hepes, pH 7.5, 2.5 mM KCl, 2.5 mM MgCl2, 1 mM DTT, 1.6 U RNAse inhibitor (Promega N2515), 0.1 mg/ml BSA (Promega R3961), and 2% glycerol. All compounds were serially diluted (3-fold) in DMSO and diluted further in water such that the final concentration of DMSO in the assay was 2%. HCV RdRp genotype 1b enzyme was used at a final concentration of 28 nM. A polyA template was used at 6 nM, and a biotinylated oligo-dT12 primer was used at 180 nM final concentration. Template was obtained commercially (Amersham 27-4110). Biotinylated primer was prepared by Sigma Genosys. 3H-UTP was used at 0.6 μCi (0.29 μM total UTP). Reactions were initiated by the addition of enzyme, incubated at 30° C. for 60 min, and stopped by adding 25 μl of 50 mM EDTA containing SPA beads (4 μg/μl, Amersham RPNQ 0007). Plates were read on a Packard Top Count NXT after >1 hr incubation at room temperature.\nModified HCV NS5B RdRp Enzyme Assay.\nA modified enzyme assay was performed essentially as described for the standard enzyme assay except for the following: The biotinylated oligo dT12 primer was precaptured on streptavidin-coated SPA beads by mixing primer and beads in assay buffer and incubating at room temperature for one hour. Unbound primer was removed after centrifugation. The primer-bound beads were resuspended in 20 mM Hepes buffer, pH 7.5 and used in the assay at final concentrations of 20 nM primer and 0.67 μg/μl beads. Order of addition in the assay: enzyme (14 nM) was added to diluted compound followed by the addition of a mixture of template (0.2 nM), 3H-UTP (0.6 μCi, 0.29 μM), and primer-bound beads, to initiate the reaction; concentrations given are final. Reactions were allowed to proceed for 4 hours at 30° C.\nIC50 values for compounds were determined using seven different [I]. […]"}}}
{"compound": "O=C(O)c1ccc2c(C3CCCCC3)c3n(c2c1)Cc1nncn1-c1ccccc1-3", "note": "[Example 1, 10-Cyclohexyl-4H-indolo[1,2-d][1,2,4]triazolo[4,3-a][1,4]benzodiazepine-7-carboxylic acid]", "values": [{"measurement": "EC50", "setting": "[1]", "result": 910, "unit": "nM"}, {"measurement": "IC50", "setting": "[2]", "result": 140, "unit": "nM"}]}
{"compound": "CN(C)S(=O)(=O)NC(=O)c1ccc2c(C3CCCCC3)c3n(c2c1)Cc1nncn1-c1ccccc1-3", "note": "[Example 2, 10-Cyclohexyl-N-((dimethylamino)sulfonyl)-4H-indolo[1,2-d][1,2,4]triazolo[4,3-a][1,4]benzodiazepine-7-carboxamide]", "values": [{"measurement": "EC50", "setting": "[1]", "result": 160, "unit": "nM"}, {"measurement": "IC50", "setting": "[2]", "result": 20, "unit": "nM"}]}
{"compound": "Cc1nnc2n1-c1ccccc1-c1c(C3CCCCC3)c3ccc(C(=O)O)cc3n1C2", "note": "[Example 3, 10-Cyclohexyl-1-methyl-4H-indolo[1,2-d][1,2,4]triazolo[4,3-a][1,4]benzodiazepine-7-carboxylic acid]", "values": [{"measurement": "EC50", "setting": "[1]", "result": 770, "unit": "nM"}, {"measurement": "IC50", "setting": "[2]", "result": 170, "unit": "nM"}]}
{"compound": "Cc1nnc2n1-c1ccccc1-c1c(C3CCCCC3)c3ccc(C(=O)NS(=O)(=O)N(C)C)cc3n1C2", "note": "[Example 4, 10-Cyclohexyl-N-((dimethylamino)sulfonyl)-1-methyl-4H-indolo[1,2-d][1,2,4]triazolo[4,3-a][1,4]benzodiazepine-7-carboxamide]", "values": [{"measurement": "EC50", "setting": "[1]", "result": 320, "unit": "nM"}, {"measurement": "IC50", "setting": "[2]", "result": 54, "unit": "nM"}]}
{"compound": "O=C(O)c1ccc2c(C3CCCCC3)c3n(c2c1)Cc1nccn1-c1ccccc1-3", "note": "[Example 5, 10-Cyclohexyl-4H-imidazo[1,2-a]indolo[1,2-d][1,4]benzodiazepine-7-carboxylic acid]", "values": [{"measurement": "EC50", "setting": "[1]", "result": 740, "unit": "nM"}, {"measurement": "IC50", "setting": "[2]", "result": 26, "unit": "nM"}]}
{"compound": "CN(C)S(=O)(=O)NC(=O)c1ccc2c(C3CCCCC3)c3n(c2c1)Cc1nccn1-c1ccccc1-3", "note": "[Example 6, 10-Cyclohexyl-N-((dimethylamino)sulfonyl)-4H-imidazo[1,2-a]indolo[1,2-d][1,4]benzodiazepine-7-carboxamide]", "values": [{"measurement": "EC50", "setting": "[1]", "result": 390, "unit": "nM"}, {"measurement": "IC50", "setting": "[2]", "result": 19, "unit": "nM"}]}
{"compound": "Cc1cn2c(n1)Cn1c(c(C3CCCCC3)c3ccc(C(=O)O)cc31)-c1ccccc1-2", "note": "[Example 7, 10-Cyclohexyl-2-methyl-4H-imidazo[1,2-a]indolo[1,2-d][1,4]benzodiazepine-7-carboxylic acid]", "values": [{"measurement": "EC50", "setting": "[1]", "result": 2850, "unit": "nM"}, {"measurement": "IC50", "setting": "[2]", "result": 130, "unit": "nM"}]}
{"compound": "Cc1cn2c(n1)Cn1c(c(C3CCCCC3)c3ccc(C(=O)NS(=O)(=O)N(C)C)cc31)-c1ccccc1-2", "note": "[Example 8, 10-Cyclohexyl-N-((dimethylamino)sulfonyl)-2-methyl-4H-imidazo[1,2-a]indolo[1,2-d][1,4]benzodiazepine-7-carboxamide]", "values": [{"measurement": "EC50", "setting": "[1]", "result": 710, "unit": "nM"}, {"measurement": "IC50", "setting": "[2]", "result": 33, "unit": "nM"}]}
